From US20230416225A1, “DIAMINOPYRIMIDINE CARBOXAMIDE INHIBITORS OF HPK1” (MERCK SHARP & DOHME LLC, priority 2020, published 2023)

molecular target: T1, Human HPK1, catalytic domain (Homo sapiens, UniProt Q92918); assay: HPK1-SLP76 TR-FRET assay; assay type: biochemical; settings: 75 pM HPK1, 10 uM ATP, 10 nM SLP76, 30 min compound pre-incubation
T1 construct: purchased Carna
T1 sequence (Q92918 1-346): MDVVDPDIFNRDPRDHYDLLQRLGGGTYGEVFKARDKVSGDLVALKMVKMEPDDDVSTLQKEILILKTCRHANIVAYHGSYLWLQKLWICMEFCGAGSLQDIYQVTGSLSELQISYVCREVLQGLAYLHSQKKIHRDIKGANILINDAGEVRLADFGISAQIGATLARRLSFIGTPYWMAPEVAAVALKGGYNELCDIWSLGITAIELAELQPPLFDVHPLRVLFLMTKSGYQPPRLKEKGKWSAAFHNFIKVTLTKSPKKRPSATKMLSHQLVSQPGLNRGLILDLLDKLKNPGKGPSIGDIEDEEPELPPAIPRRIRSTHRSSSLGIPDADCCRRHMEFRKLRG

| Compound | IC50 |
| --- | --- |
| COCCN1CCc2cc(OC)c(Nc3ncc(C(N)=O)c(Nc4ccccc4Br)n3)cc2C1 [Example 10-1, 4-[(2-bromophenyl)amino]-2-{[6-methoxy-2-(2-methoxyethyl)-1,2,3,4-tetrahydroisoquinolin-7-yl]amino}pyrimidine-5-carboxamide] | 0.44 nM |
| COc1cc2c(cc1Nc1ncc(C(N)=O)c(Nc3cccc(CNC(=O)OC(C)(C)C)c3)n1)CN(C)CC2 [Example 2-1, tert-butyl {[3-({5-carbamoyl-2-[(6-methoxy-2-methyl-1,2,3,4-tetrahydroisoquinolin-7-yl)amino]pyrimidin-4-yl}amino)phenylmethyl} carbamate] | 1.59 nM |
| CNC(=O)c1cccc(Nc2nc(Nc3cc4c(cc3Cl)CCN(C)C4)ncc2C(N)=O)c1 [Example 7-39, 2-[(6-chloro-2-methyl-1,2,3,4-tetrahydroisoquinolin-7-yl)amino]-4-{[3-(methylcarbamoyl)phenyl]amino} pyrimidine-5-carboxamide] | 57.4 nM |
| Cc1cccc(F)c1Nc1nc(Nc2c(C)n[nH]c2C)ncc1C(N)=O [Example 4-34, 2-[(3,5-dimethyl-1H-pyrazol-4-yl)amino]-4-[(2-fluoro-6-methylphenyl)amino] pyrimidine-5-carboxamide] | 65.1 nM |
| COc1cc2c(cc1Nc1ncc(C(N)=O)c(Nc3cccc(C(C)N)c3)n1)CN(C)CC2 (stereo not drawn) [Example 2-5, 4-{[3-(1-aminoethyl)phenyl]-amino}-2-[(6-methoxy-2-methyl-1,2,3,4-tetrahydroisoquinolin-7-yl)amino]pyrimidine-5-carboxamide] | 0.25 nM |
| COc1cc2c(cc1Nc1ncc(C(N)=O)c(Nc3c(F)cccc3C(F)(F)F)n1)CN(CC(C)(C)O)CC2 [Example 5-1, 4-((2-Fluoro-6-(trifluoromethyl)phenyl)amino)-2-((2-(2-hydroxy-2-methylpropyl)-6-methoxy-1,2,3,4-tetrahydroisoquinolin-7-yl)amino)pyrimidine-5-carboxamide] | 2.97 nM |
| COc1cc2c(cc1Nc1ncc(C(N)=O)c(Nc3cccc(CCO)c3)n1)CNCC2 [Example 7-75, 4-{[3-(2-hydroxyethyl)phenyl]amino}-2-[(6-methoxy-1,2,3,4-tetrahydroisoquinolin-7-yl)amino]pyrimidine-5-carboxamide] | 0.99 nM |
| CC[C@H](C)Cc1ccccc1Nc1nc(Nc2cc3c(cc2OC)CCN(C)C3)ncc1C(N)=O [Example 13-6, 2-[(6-methoxy-2-methyl-1,2,3,4-tetrahydroisoquinolin-7-yl)amino]-4-({2-[(2S)-2-methylbutyl]phenyl}amino)pyrimidine-5-carboxamide] | 597 nM |
| COc1cc2c(cc1Nc1ncc(C(N)=O)c(Nc3ccc(Br)cc3)n1)CN(C)CC2 [Example 7-72, 4-[(4-bromophenyl)amino]-2-[(6-methoxy-2-methyl-1,2,3,4-tetrahydroisoquinolin-7-yl)amino]pyrimidine-5-carboxamide] | 1.52 nM |
| C#Cc1ccccc1Nc1nc(Nc2cc3c(cc2OC)CCN(C)C3)ncc1C(N)=O [Example 7-102, 4-[(2-ethynylphenyl)amino]-2-[(6-methoxy-2-methyl-1,2,3,4-tetrahydroisoquinolin-7-yl)amino]pyrimidine-5-carboxamide] | 0.61 nM |
| COc1cc2c(cc1Nc1ncc(C(N)=O)c(Nc3c(C)cc(C#N)cc3F)n1)CN(C)CC2 [Example 4-33, 4-[(4-cyano-2-fluoro-6-methylphenyl)amino]-2-[(6-methoxy-2-methyl-1,2,3,4-tetrahydroisoquinolin-7-yl)amino]pyrimidine-5-carboxamide] | 0.44 nM |
| COc1cc2c(cc1Nc1ncc(C(N)=O)c(Nc3ccccc3Br)n1)CN(C1CC(C#N)C1)CC2 (stereo not drawn) [Example 9-6, 4-((2-bromophenyl)amino)-2-((2-(3-cyanocyclobutyl)-6-methoxy-1,2,3,4-tetrahydroisoquinolin-7-yl)amino)pyrimidine-5-carboxamide] | 4.57 nM |
| COc1cc2c(cc1Nc1ncc(C(N)=O)c(Nc3cc(C)ccc3Cl)n1)CN(C)CC2 [Example 4-18, 4-[(2-chloro-5-methylphenyl)amino]-2-[(6-methoxy-2-methyl-1,2,3,4-tetrahydroisoquinolin-7-yl)amino]pyrimidine-5-carboxamide] | 0.48 nM |
| COc1cc2c(cc1Nc1ncc(C(N)=O)c(Nc3cn(C)nc3C(F)(F)F)n1)CN(C)CC2 [Example 7-86, 2-((6-methoxy-2-methyl-1,2,3,4-tetrahydroisoquinolin-7-yl)amino)-4-((1-methyl-3-(trifluoromethyl)-1H-pyrazol-4-yl)amino)pyrimidine-5-carboxamide] | 11.8 nM |
| COc1cc2c(cc1Nc1ncc(C(N)=O)c(Nc3cc(C(F)(F)F)cc4c3CCNC4)n1)CN(C)CC2 [Example 7-66, 2-[(6-methoxy-2-methyl-1,2,3,4-tetrahydroisoquinolin-7-yl)amino]-4-{[7-(trifluoromethyl)-1,2,3,4-tetrahydroisoquinolin-5-yl]amino}pyrimidine-5-carboxamide] | 0.15 nM |
| COc1cc(N2CCC(N3CCOCC3)CC2)ccc1Nc1ncc(C(N)=O)c(Nc2ccccc2Br)n1 [Example 7-116, 4-[(2-bromophenyl)amino]-2-({2-methoxy-4-[4-(morpholin-4-yl)piperidin-1-yl]phenyl}amino)pyrimidine-5-carboxamide] | 283 nM |
| COc1cc2c(cc1Nc1ncc(C(N)=O)c(Nc3c(F)cccc3C(F)(F)F)n1)CN(C)CC21CC1 [Example 21-1, 4-((2-fluoro-6-(trifluoromethyl)phenyl)amino)-2-((6′-methoxy-2′-methyl-2′,3′-dihydro-1′H-spiro[cyclopropane-1,4′-isoquinolin]-7′-yl)amino)pyrimidine-5-carboxamide] | 0.21 nM |
| COc1cc2c(cc1Nc1ncc(C(N)=O)c(Nc3ccccc3CC(F)(F)F)n1)CN(C)CC2 [Example 7-98, 2-[(6-methoxy-2-methyl-1,2,3,4-tetrahydroisoquinolin-7-yl)amino]-4-{[2-(2,2,2-trifluoroethyl)phenyl]amino}pyri-midine-5-carboxamide] | 0.07 nM |
| COc1cc2c(cc1Nc1ncc(C(N)=O)c(Nc3cccc(C)c3F)n1)CN(C)CC2 [Example 4-14] | 0.18 nM |

Second part, the compound after the results:

| IC50 | Compound |
| --- | --- |
| 3.31 nM | COc1cc2c(cc1Nc1ncc(C(N)=O)c(N[C@H]3C[C@H]4CC[C@@H](C3)N4C)n1)CN(C)CC2 [Example 26-26, 2-[(6-methoxy-2-methyl-1,2,3,4-tetrahydroisoquinolin-7-yl)amino]-4-{[(1R,3r,5S)-8-methyl-8-azabicyclo[3.2.1]octan-3-yl]amino}pyrimidine-5-carboxamide] |
| 45 nM | NC(=O)c1cnc(Nc2ccc(OC(F)F)c(Cl)c2)nc1Nc1cccc2c1CCNC2=O [Example 25-21, 2-{[3-chloro-4-(difluoromethoxy)phenyl]amino}-4-[(1-oxo-1,2,3,4-tetrahydroisoquinolin-5-yl)amino]pyrimidine-5-carboxamide] |
| 1.33 nM | COc1cc2c(cc1Nc1ncc(C(N)=O)c(NC3C4CC3C4)n1)CN(C)CC2 (stereo not drawn) [Example 26-4, 4-[(bicyclo[1.1.1]pentan-2-yl)amino]-2-[(6-methoxy-2-methyl-1,2,3,4-tetrahydroisoquinolin-7-yl)amino]pyrimidine-5-carboxamide] |
| 5.18 nM | COc1cc2c(cc1Nc1ncc(C(N)=O)c(NC3CCC(OC)CC3)n1)CN(C)CC2 (stereo not drawn) [Example 26-31, 4-[(4-methoxycyclohexyl)amino]-2-[(6-methoxy-2-methyl-1,2,3,4-tetrahydroisoquinolin-7-yl)amino]pyrimidine-5-carboxamide] |
| 230 nM | NC(=O)c1cnc(NCc2c(Cl)cccc2Cl)nc1Nc1cccc2c1CCNC2=O [Example 25-24, 2-{[(2,6-dichlorophenyl)methyl]amino}-4-[(1-oxo-1,2,3,4-tetrahydroisoquinolin-5-yl)amino]pyrimidine-5-carboxamide] |
| 1.02 nM | COc1cc2c(cc1Nc1ncc(C(N)=O)c(N[C@@H]3CCCC[C@H]3CO)n1)CN(C)CC2 [Example 26-32, 4-{[(1R,2R)-2-(hydroxymethyl)cyclohexyl]amino}-2-[(6-methoxy-2-methyl-1,2,3,4-tetrahydroisoquinolin-7-yl)amino]pyrimidine-5-carboxamide] |
| 29.7 nM | COc1cc2c(cc1Nc1ncc(C(N)=O)c(N[C@@H]3CCCc4cc(F)ccc43)n1)CN(C)CC2 [Example 26-46, 4-{[(1R)-6-fluoro-1,2,3,4-tetrahydronaphthalen-1-yl]amino}-2-[(6-methoxy-2-methyl-1,2,3,4-tetrahydroisoquinolin-7-yl)amino]pyrimidine-5-carboxamide] |
| 146 nM | COc1cc2c(cc1Nc1ncc(C(N)=O)c(NCc3ccc(C(F)(F)F)cc3)n1)CN(C)CC2 [Example 26-61, 2-[(6-methoxy-2-methyl-1,2,3,4-tetrahydroisoquinolin-7-yl)amino]-4-({[4-(trifluoromethyl)phenyl]methyl}amino)pyrimidine-5-carboxamide] |
| 224 nM | COc1cc2c(cc1Nc1ncc(C(N)=O)c(NCc3ccncc3)n1)CN(C)CC2 [Example 26-55, 2-[(6-methoxy-2-methyl-1,2,3,4-tetrahydroisoquinolin-7-yl)amino]-4-{[(pyridin-4-yl)methyl]amino}pyrimidine-5-carboxamide] |
| 18.1 nM | COc1cc2c(cc1Nc1ncc(C(N)=O)c(NC3CCC(c4ccccc4)C3)n1)CN(C)CC2 (stereo not drawn) [Example 26-12, 2-[(6-methoxy-2-methyl-1,2,3,4-tetrahydroisoquinolin-7-yl)amino]-4-[(3-phenylcyclopentyl)amino]pyrimidine-5-carboxamide] |
| 14 nM | NC(=O)c1cnc(Nc2ccc(C3CC3)cc2)nc1Nc1cccc2c1CCNC2=O [Example 25-13, 2-[(4-cyclopropylphenyl)amino]-4-[(1-oxo-1,2,3,4-tetrahydroisoquinolin-5-yl)amino]pyrimidine-5-carboxamide] |
